tested on: HIV-1 (H9IIIB strain); assay: Cell-Based HIV Infection Assay Using a Reporter (MT4-GFP cells); details: Human immunodeficiency virus 1, inflection point (IP) of viral growth inhibition; MT4-GFP cells infected with HIV-1 H9IIIB; 50% normal human serum; mean of at least two independent experiments; read-out: Cell Based IP (50% NHS)
Outline: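 Inflection point from a 4-parameter curve of % viral growth inhibition, normalised to DMSO and triple-drug controls, using the 48 h/24 h ratio of GFP-positive cells (R0). MT4-GFP cells pre-infected 24 h with HIV-1 H9IIIB at low MOI; compounds tested in 50% normal human serum, 0.4% DMSO; mean of ≥2 experiments.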

Row | SMILES | EC50 [nM]
1 | COC(=O)N[C@H](C(=O)Nc1cccc(F)c1CCC1CNC2CCCS(=O)(=O)N1C2)[C@@H](c1ccc(F)cc1)c1ccc(C(F)(F)F)cc1 (stereo partly drawn) [Example 224, Methyl [(1S)-2-({2-[2-(2,2-dioxido-2-thia-1,7-diazabicyclo[4.3.1]dec-9-yl)ethyl]-3-fluorophenyl}amino)-1-{(R)-(4-fluorophenyl)[4-(trifluoromethyl)phenyl]methyl}-2-oxoethyl]carbamate] | 5.7
2 | N[C@H](C(=O)Nc1cccc(F)c1CCC1CNC2CCCS(=O)(=O)N1C2)[C@@H](c1ccc(F)cc1)c1ccc2c(c1)CCC2 (stereo partly drawn) [Example 225, (2S,3S)-2-Amino-3-(2,3-dihydro-1H-inden-5-yl)-N-{2-[2-(2,2-dioxido-2-thia-1,7-diazabicyclo[4.3.1]dec-9-yl)ethyl]-3-fluorophenyl}-3-(4-fluorophenyl)propanamide] | 45
3 | N[C@H](C(=O)Nc1cccc(F)c1CCC1CNC2CCCS(=O)(=O)N1C2)[C@H](c1cncc(C(F)(F)F)c1)c1ccc(Cl)c(F)c1 (stereo partly drawn) [Example 227, (βS)-4-Chloro-N-{2-[2-(2,2-dioxido-2-thia-1,7-diazabicyclo[4.3.1]dec-9-yl)ethyl]-3-fluorophenyl}-3-fluoro-β-[5-(trifluoromethyl)pyridin-3-yl]-L-phenylalaninamide] | 7.1
4 | COC(=O)N[C@H](C(=O)Nc1ccc(F)c(F)c1CC[C@H]1CN[C@@H]2CCCS(=O)(=O)N1C2)[C@@H](c1ccc(F)cc1)C1C[C@@H](C)O[C@@H](C)C1 (stereo partly drawn) [Example 228, Methyl [(1S,2R)-2-[(2R,6S)-2,6-dimethyltetrahydro-2H-pyran-4-yl]-1-[(2-{2-[(6R,9S)-2,2-dioxido-2-thia-1,7-diazabicyclo[4.3.1]dec-9-yl]ethyl}-3,4-difluorophenyl)carbamoyl]-2-(4-fluorophenyl)ethyl]carbamate] | 10
5 | COC(=O)CCCN[C@H](C(=O)N[C@H]1CCC[C@@H]1CC[C@H]1CN[C@@H]2CCCS(=O)(=O)N1C2)[C@@H](c1ccc(Cl)cc1)C1CCOC(C)(C)C1 (stereo partly drawn) [Example 229, methyl 4-{[(1S,2R)-2-(4-chlorophenyl)-2-(2,2-dimethyltetrahydro-2H-pyran-4-yl)-1-{[(1S,2R)-2-{2-[(6R,9S)-2,2-dioxido-2-thia-1,7-diazabicyclo[4.3.1]dec-9-yl]ethyl}cyclopentyl]carbamoyl}ethyl]amino} butanoate] | 210
6 | CC1(C)CC([C@H](c2ccc(Cl)cc2)[C@H](NCCOCc2ccccc2)C(=O)N[C@H]2CCC[C@@H]2CC[C@H]2CN[C@@H]3CCCS(=O)(=O)N2C3)CCO1 (stereo partly drawn) [Example 230, (βR)-Nα-[2-(benzyloxy)ethyl]-4-chloro-β-(2,2-dimethyltetrahydro-2H-pyran-4-yl)-N-[(1S,2R)-2-{2-[(6R,9S)-2,2-dioxido-2-thia-1,7-diazabicyclo[4.3.1]dec-9-yl]ethyl}cyclopentyl]-L-phenylalaninamide] | 310
7 | CC1(C)CC([C@H](c2ccc(Cl)cc2)[C@H](NCCO)C(=O)N[C@H]2CCC[C@@H]2CC[C@H]2CN[C@@H]3CCCS(=O)(=O)N2C3)CCO1 (stereo partly drawn) [Example 231, (βR)-4-chloro-β-(2,2-dimethyltetrahydro-2H-pyran-4-yl)-N-[(1S,2R)-2-{2-[(6R,9S)-2,2-dioxido-2-thia-1,7-diazabicyclo[4.3.1]dec-9-yl]ethyl}cyclopentyl]-Nα-(2-hydroxyethyl)-L-phenylalaninamide] | 310
8 | CC1(C)CC([C@H](c2ccc(Cl)cc2)[C@H](NC(=O)CN)C(=O)N[C@H]2CCC[C@@H]2CC[C@H]2CN[C@@H]3CCCS(=O)(=O)N2C3)CCO1 (stereo partly drawn) [Example 232, glycyl-(βR)-4-chloro-β-(2,2-dimelhyltetrahydro-2H-pyran-4-yl)-N-[(1S,2R)-2-{2-[(6R,9S)-2,2-dioxido-2-thia-1,7-diazabicyclo[4.3.1]dec-9-yl]ethyl}cyclopentyl]-L-phenylalaninamide] | 2500
9 | N[C@H](C(=O)Nc1cncc(F)c1CC[C@H]1CN[C@@H]2CCCS(=O)(=O)N1C2)C1(c2ccc(Cl)cc2)CCOCC1 [Example 233, (2S)-2-amino-2-[4-(4-chlorophenyl)tetrahydro-2H-pyran-4-yl]-N-(4-{2-[(6R,9S)-2,2-dioxido-2-thia-1,7-diazabicyclo[4.3.1]dec-9-yl]ethyl}-5-fluoropyridin-3-yl)ethanamide] | 67
10 | N[C@H](C(=O)Nc1cncc(F)c1CC[C@H]1CN[C@@H]2CCCS(=O)(=O)N1C2)[C@H](c1cncc(F)c1)c1ccc(Cl)c(F)c1 [Example 234, (βS)-4-chloro-N-(4-{2-[(6R,9S)-2,2-dioxido-2-thia-1,7-diazabicyclo[4.3.1]dec-9-yl]ethyl}-5-fluoropyridin-3-yl)-3-fluoro-β-(5-fluoropyridin-3-yl)-L-phenylalaninamide] | 50
11 | CO[C@H]1CC[C@](c2ccc(F)cc2)([C@H](N)C(=O)Nc2cncc(F)c2CC[C@H]2CN[C@@H]3CCCS(=O)(=O)N2C3)CC1 [Example 235, (2S)-2-amino-N-(4-{2-[(6R,9S)-2,2-dioxido-2-thia-1,7-diazabicyclo[4.3.1]dec-9-yl]ethyl}-5-fluoropyridin-3-yl)-2-[trans-1-(4-fluorophenyl)-4-methoxycyclohexyl]ethanamide] | 67
12 | N[C@H](C(=O)Nc1cncc(F)c1CC[C@H]1CN[C@@H]2CCCS(=O)(=O)N1C2)[C@@H](c1ccc(Cl)cc1)c1cc(F)cc(F)c1 [Example 236, (βS)-β-(4-chlorophcnyl)-N-(4-{2-[(6R,9S)-2,2-dioxido-2-thia-1,7-diazabicyclo[4.3.1]dec-9-yl]ethyl}-5-fluoropyridin-3-yl)-3,5-difluoro-L-phenylalaninamide] | 2.8
13 | CC1(C)CC([C@H](c2ccc(Cl)cc2)[C@H](NC(=O)C(C)(C)N)C(=O)N[C@H]2CCC[C@@H]2CC[C@H]2CN[C@@H]3CCCS(=O)(=O)N2C3)CCO1 (stereo partly drawn) [Example 237, 2-methylalanyl-(βR)-4-chloro-β-(2,2-dimethyltetrahydro-2H-pyran-4-yl)-N-[(1S,2R)-2-{2-[(6R,9S)-2,2-dioxido-2-thia-1,7-diazabicyclo[4.3.1]dec-9-yl]ethyl}cyclopentyl]-L-phenylalaninamide] | 150
14 | CC(C)[C@H](c1ccc(Cl)cc1)[C@H](N)C(=O)Nc1cncc(F)c1CC[C@H]1CN[C@@H]2CCCS(=O)(=O)N1C2 [Example 238, (2S,3R)-2-amino-3-(4-chlorophenyl)-N-(4-(2-((6R,9S)-2,2-dioxido-2-thia-1,7-diazabicyclo[4.3.1]decan-9-yl)ethyl)-5-fluoropyridin-3-yl)-4-methylpentanamide] | 13
15 | CO[C@H]1CC[C@H]([C@H](c2ccc(Cl)cc2)[C@H](N)C(=O)Nc2cncc(F)c2CC[C@H]2CN[C@@H]3CCCS(=O)(=O)N2C3)CC1 [Example 239, (2S,3R)-2-amino-3-(4-chlorophenyl)-N-(4-(2-((6R,9S)-2,2-dioxido-2-thia-1,7-diazabicyclo[4.3.1]decan-9-yl)ethyl)-5-fluoropyridin-3-yl)-3-((1r,4R)-4-methoxycyclohexyl)propanamide] | 5.6
16 | N[C@H](C(=O)Nc1cncc(F)c1CC[C@H]1CN[C@@H]2CCCS(=O)(=O)N1C2)[C@@H](c1ccc(Cl)cc1)C1CCC(F)(F)CC1 [Example 241, (2S,3R)-2-amino-3-(4-chlorophenyl)-3-(4,4-difluorocyclohexyl)-N-(4-(2-((6R,9S)-2,2-dioxido-2-thia-1,7-diazabicyclo[4.3.1]decan-9-yl)ethyl)-5-fluoropyridin-3-yl)propanamide] | 7.3

Reference: patent publication US10138255B2, “Piperazine derivatives as HIV protease inhibitors” (Merck Sharp & Dohme Corp., priority 2014, dated 2018)
